These results are taken from patent US8778958B2, “Synthesis of metabolically stable agents for alcohol and drug abuse” (priority 2008, dated 2014).

Where two headings read alike, the source gives them in different places.

One data set in a line: Solubility in H2O. As to conditions: water.
Another data set addresses T1, δ-opioid receptor (Homo sapiens, UniProt P41143).
T1 construct: expressed in transfected cells; host or cells: CHO cells
The experiment in a line: biochemical. In kind it is binding. As to conditions: Table 1b; for Ki: N-oxides; for Inhibition of agonist binding, δ: concentration not given.

In a further data set the target is T2, κ-opioid receptor (Homo sapiens, UniProt P41145).
T2 construct: expressed in transfected cells; host or cells: CHO cells
Description: biochemical. In kind it is binding. As to conditions: read-out: Ki (nM) ± SEM, κ.

A further data set addresses T3, μ-opioid receptor (Homo sapiens, UniProt P35372).
T3 construct: expressed in transfected cells; host or cells: CHO cells
The experiment in a line: biochemical. In kind it is binding.

The mark [1] stands for this setting: Ki (nM) ± SEM, μ, Table 1b, N-oxides.

T2 sequence (P41145 whole entry): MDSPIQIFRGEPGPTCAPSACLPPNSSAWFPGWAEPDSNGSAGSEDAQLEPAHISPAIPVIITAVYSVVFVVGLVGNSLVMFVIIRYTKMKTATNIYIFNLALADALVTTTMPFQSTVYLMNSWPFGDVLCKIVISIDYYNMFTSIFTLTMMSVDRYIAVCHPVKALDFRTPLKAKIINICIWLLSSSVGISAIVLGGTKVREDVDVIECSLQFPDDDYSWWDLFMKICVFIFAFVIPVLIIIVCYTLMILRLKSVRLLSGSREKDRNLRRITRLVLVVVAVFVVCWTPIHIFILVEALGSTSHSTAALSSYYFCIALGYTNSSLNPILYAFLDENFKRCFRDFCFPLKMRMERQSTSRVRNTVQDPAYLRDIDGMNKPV
T1 sequence (P41143 whole entry): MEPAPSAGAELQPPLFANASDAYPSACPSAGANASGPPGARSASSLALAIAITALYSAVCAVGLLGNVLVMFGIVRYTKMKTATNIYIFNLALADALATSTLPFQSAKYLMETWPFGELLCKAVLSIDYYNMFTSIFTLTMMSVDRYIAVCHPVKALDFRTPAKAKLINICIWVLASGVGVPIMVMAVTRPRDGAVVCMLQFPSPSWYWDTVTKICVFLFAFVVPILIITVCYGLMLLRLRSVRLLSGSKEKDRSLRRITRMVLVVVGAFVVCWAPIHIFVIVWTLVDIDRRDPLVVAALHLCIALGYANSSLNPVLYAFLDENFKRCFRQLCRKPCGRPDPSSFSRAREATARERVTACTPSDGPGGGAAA
T3 sequence (P35372 whole entry): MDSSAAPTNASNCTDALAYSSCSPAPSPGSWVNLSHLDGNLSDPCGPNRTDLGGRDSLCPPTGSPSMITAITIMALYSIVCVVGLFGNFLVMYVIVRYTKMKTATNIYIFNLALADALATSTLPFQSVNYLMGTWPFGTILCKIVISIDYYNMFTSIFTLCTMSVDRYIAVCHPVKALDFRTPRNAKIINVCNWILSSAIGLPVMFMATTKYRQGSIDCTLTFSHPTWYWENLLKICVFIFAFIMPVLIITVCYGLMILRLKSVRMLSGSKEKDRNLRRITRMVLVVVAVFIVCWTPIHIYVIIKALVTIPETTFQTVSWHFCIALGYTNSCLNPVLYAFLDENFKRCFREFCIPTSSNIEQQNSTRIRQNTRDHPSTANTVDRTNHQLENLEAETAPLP

Compound `CN(C(=O)/C=C/c1ccoc1)[C@H]1CC[C@@]2(O)[C@H]3Cc4ccc(O)c5c4[C@@]2(CCN3CC2CC2)[C@H]1O5.O=C(O)C(=O)O` (relative stereo) [20a—Oxalate, 17-Cyclopropylmethyl-3,14β-dihydroxy-4,5α-epoxy-6α-[N-methyl-trans-3-(3-furyl)acrylamido]morphinan oxalate] had a solubility in “Solubility in H2O” of 16 mg/mL.
Same read-out and setting: then `O=C(/C=C/c1ccoc1)N[C@@H]1CC[C@@]2(O)[C@H]3Cc4ccc(O)c5c4[C@@]2(CCN3CC2CC2)[C@H]1O5.O=C(O)C(=O)O` (relative stereo) [Compound 19b.Oxalate, 17-Cyclopropylmethyl-3,14β-dihydroxy-4,5α-epoxy-6β-[-trans-3-(3-furyl)acrylamido]morphinan oxalate], with 24 mg/mL.
For the compound `COC(=O)c1ccc(C(=O)N[C@@H]2CC[C@@]3(O)[C@H]4Cc5ccc(O)c6c5[C@@]3(CC[N+]4([O-])CC3CC3)[C@H]2O6)cc1` (stereo partly drawn) [Compound 38, 17-Cyclopropylmethyl-3,14β-dihydroxy-4,5α-epoxy-6β-[(4′-carbomethoxy)benzamido]morphinan-N-oxide], the Ki at δ-opioid receptor (Ki (nM) ± SEM, δ) came to 1390 ± 279 nM; on κ-opioid receptor, 51 ± 6 nM; at μ-opioid receptor (setting [1]), 30 ± 2.1 nM.
For `COc1ccc(CC(=O)N[C@@H]2CC[C@@]3(O)[C@H]4Cc5ccc(O)c6c5[C@@]3(CC[N+]4([O-])CC3CC3)[C@H]2O6)cc1` (stereo partly drawn) [Compound 39, 17-Cyclopropylmethyl-3,14β-dihydroxy-4,5α-epoxy-6β-[(4′-methoxy)phenylacetamido]morphinan N-oxide] the same measures were 472 ± 78 nM, 10 ± 1 nM and 78 ± 20 nM.
For `O=C(N[C@@H]1CC[C@@]2(O)[C@H]3Cc4ccc(O)c5c4[C@@]2(CC[N+]3([O-])CC2CC2)[C@H]1O5)c1ccc([N+](=O)[O-])cc1` (stereo partly drawn) [Compound 40, 17-Cyclopropylmethyl-3,14β-dihydroxy-4,5α-epoxy-6β-[(4′-nitro)benzamido]morphinan-N-oxide] the same measures were 590 ± 590 nM, 6.7 ± 0.4 nM and 38 ± 6.5 nM.
For `COc1ccc(C(=O)N[C@H]2CC[C@@]3(O)[C@H]4Cc5ccc(O)c6c5[C@@]3(CC[N+]4([O-])CC3CC3)[C@H]2O6)cc1OC` (stereo partly drawn) [Compound 41, 17-Cyclopropylmethyl-3,14β-dihydroxy-4,5α-epoxy-6α-[(3′,4′-dimethoxy)benzamido]morphinan-N-oxide] the same measures were 51 ± 2.45 nM, 30 ± 3 nM and 16 ± 2.7 nM.
As for `COc1cccc(C(=O)N[C@@H]2CC[C@@]3(O)[C@H]4Cc5ccc(O)c6c5[C@@]3(CC[N+]4([O-])CC3CC3)[C@H]2O6)c1` (stereo partly drawn) [Compound 42, 17-Cyclopropylmethyl-3,14β-dihydroxy-4,5α-epoxy-6β-[(3′-methoxy)benzamido]morphinan-N-oxide], the Ki on δ-opioid receptor (Ki (nM) ± SEM, δ) came to 1050 ± 38 nM; on κ-opioid receptor, 16 ± 2 nM; at μ-opioid receptor (setting [1]) it was 49 ± 8.6 nM.
Regarding `O=C(N[C@@H]1CC[C@@]2(O)[C@H]3Cc4ccc(O)c5c4[C@@]2(CC[N+]3([O-])CC2CC2)[C@H]1O5)c1ccc(Cl)c(Cl)c1` (stereo partly drawn) [Compound 43, 17-Cyclopropylmethyl-3,14β-dihydroxy-4,5α-epoxy-6β-[(3′,4′-dichloro)benzamido]morphinan-N-oxide], the Ki on δ-opioid receptor (Ki (nM) ± SEM, δ) stood at 212 ± 11 nM; at κ-opioid receptor, 2 ± 0.2 nM; on μ-opioid receptor (setting [1]) it was 3.6 ± 0.43 nM.
For `CN(C(=O)c1ccc(I)cc1)[C@H]1CC[C@@]2(O)[C@H]3Cc4ccc(O)c5c4[C@@]2(CC[N+]3([O-])CC2CC2)[C@H]1O5` (stereo partly drawn) [Compound 47, 17-Cyclopropylmethyl-3,14-β-dihydroxy-4,5α-epoxy-6α-N-methyl-[(4′-iodo)benzamido]morphinan-N-oxide] the same measures were 290 ± 17 nM, 5.9 ± 0.4 nM and 27.6 ± 0.8 nM.
As to `CN(C(=O)c1ccc(C(C)(C)C)cc1)[C@H]1CC[C@@]2(O)[C@H]3Cc4ccc(O)c5c4[C@@]2(CC[N+]3([O-])CC2CC2)[C@H]1O5` (some centres unmarked) [Compound 48], the Ki at δ-opioid receptor (read-out: Ki (nM) ± SEM, δ) worked out at 148 ± 10 nM; on κ-opioid receptor (Table 1b, N-oxides), 14 ± 1 nM; on μ-opioid receptor (read-out: Ki (nM) ± SEM, μ) it was 26 ± 2 nM.
For `CN(C(=O)c1ccc(Cl)cc1)[C@H]1CC[C@@]2(O)[C@H]3Cc4ccc(O)c5c4[C@@]2(CC[N+]3([O-])CC2CC2)[C@H]1O5` (stereo partly drawn) [Compound 50, 17-Cyclopropylmethyl-3,14-β-dihydroxy-4,5α-epoxy-6α-N-methyl-[(4′-chloro)benzamido]morphinan-N-oxide] the same measures were 3330 ± 160 nM, 77 ± 8 nM and 369 ± 18 nM.
Regarding `NC(=NO)c1cccc(C(=O)NC2CCC3(O)C4Cc5ccc(O)c6c5C3(CC[N+]4([O-])CC3CC3)C2O6)c1` (centres unmarked) [Compound 52], the Ki at δ-opioid receptor (Ki (nM) ± SEM, δ) is 1220 ± 45 nM; on κ-opioid receptor, 26 ± 1.81 nM; at μ-opioid receptor (setting [1]) it was 114 ± 3.3 nM.
Consider `N#Cc1cccc(C(=O)N[C@@H]2CC[C@@]3(O)[C@H]4Cc5ccc(O)c6c5[C@@]3(CC[N+]4([O-])CC3CC3)[C@H]2O6)c1` (stereo partly drawn) [Compound 53, 17-Cyclopropylmethyl-3,14β-dihydroxy-4,5α-epoxy-6β-[(3′ cyano)benzamido]morphinan-N-oxide], for which the “Inhibition of agonist binding, δ” value at δ-opioid receptor is given as below 50% inh. Further, the Ki stood at 426 ± 21.5 nM on κ-opioid receptor and 117 ± 7.8 nM at μ-opioid receptor (setting [1]).
Take `CN(C(=O)c1ccc(I)cc1)C1CCC2(O)C3Cc4ccc(O)c5c4C2(CC[N+]3([O-])CC2CC2)C1O5` (stereo not drawn) [Compound 54, 17-Cyclopropylmethyl-3,14-β-dihydroxy-4,5α-epoxy-6β-N-methyl-[(4′-iodo)benzamido]morphinan-N-oxide]: the Ki on δ-opioid receptor (Ki (nM) ± SEM, δ) is 3060 ± 271 nM; on κ-opioid receptor, 117 ± 10 nM; on μ-opioid receptor (setting [1]) it was 148 ± 9.3 nM.
In the case of `Cc1ccc(C(=O)N[C@@H]2CC[C@@]3(O)[C@H]4Cc5ccc(O)c6c5[C@@]3(CC[N+]4(C)[O-])[C@H]2O6)cc1` (stereo partly drawn) [Compound 55, 17-Methyl-3,14β-dihydroxy-4,5α-epoxy-6β-[(4′-methyl)benzamido]morphinan-N-oxide], the “Inhibition of agonist binding, δ” value at δ-opioid receptor is on record as below 50% inh. Besides, the Ki on κ-opioid receptor came out at 1190 ± 134 nM; on μ-opioid receptor (setting [1]), 244 ± 8.2 nM.
For the compound `O=C(NC1CCC2(O)C3Cc4ccc(O)c5c4C2(CC[N+]3([O-])CC2CC2)C1O5)c1ccc(C(F)(F)F)c(F)c1` (stereo not drawn) [Compound 56, 17-Cyclopropylmethyl-3,14β-dihydroxy-4,5α-epoxy-6β-[(3′-fluoro-4′-trifluoromethyl)benzamido]morphinan-N-oxide], the Ki worked out at 352 ± 10 nM at δ-opioid receptor (Ki (nM) ± SEM, δ); 3.8 ± 0.3 nM at κ-opioid receptor; 8.3 ± 0.3 nM at μ-opioid receptor (setting [1]).
For `O=C(NC1CCC2(O)C3Cc4ccc(O)c5c4C2(CC[N+]3([O-])CC2CC2)C1O5)c1ccc(Cl)c(F)c1` (stereo not drawn) [Compound 59, 17-Cyclopropylmethyl-3,14β-dihydroxy-4,5α-epoxy-6β-[(4′-chloro-3′-fluoro)benzamido]morphinan-N-oxide] the same measures were 390 ± 18 nM, 2.5 ± 0.09 nM and 14.1 ± 0.5 nM.
As for `O=C(N[C@@H]1CC[C@@]2(O)[C@H]3Cc4ccc(O)c5c4[C@@]2(CC[N+]3([O-])CC2CC2)[C@H]1O5)c1ccc(Br)cc1` (stereo partly drawn) [Compound 63, 17-Cyclopropylmethyl-3,14β-dihydroxy-4,5α-epoxy-6β-[(4′-bromo)benzamido]morphinan-N-oxide], the Ki on δ-opioid receptor (Ki (nM) ± SEM, δ) was determined as 246 ± 15 nM; at κ-opioid receptor it was 6.3 ± 0.6 nM; at μ-opioid receptor (setting [1]), 7 ± 0.1 nM.

One may read the solubility as how much of the substance goes into solution per volume. The low end stands for a poorly soluble substance, the high end for a readily soluble substance. One may read the Ki as the equilibrium dissociation constant of an inhibitor or competing ligand from its target.
